Measured values taken from the supplement of paper PMC10307832.

How the values were obtained:
Assay in all cases: relative viability (nuclei count vs DMSO), 5 days (fraction); higher = more cells survive
[1] = compound: CC1=NC=CC(=C1)C2=CC=C(C=C2)CC(=O)NC3=CC=C(C=C3)C4=CN=CC=C4 [Wnt-C59] + CCNC(=O)c1noc(-c2cc(C(C)C)c(O)cc2O)c1-c1ccc(CN2CCOCC2)cc1 [Luminespib] (partner 0.01 µM)
Procedure, shortened: (§1)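 Lung cancer cell lines were pin-tool dosed in 1536-well plates on the day after seeding, with either a lone drug or a fixed anchor-drug dose plus five library-drug doses (not always all listed) in √10 steps. Nuclei were counted on 4× images after 5 days. Relative viability is the ratio of treated-well to vehicle-well nuclei counts, with each value a median of duplicate plates.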

[2] = compound: CS(=O)(=O)CCNCc1ccc(-c2ccc3ncnc(Nc4ccc(OCc5cccc(F)c5)c(Cl)c4)c3c2)o1 [Lapatinib] + O=C(CCCCCCC(=O)Nc1ccccc1)NO [Vorinostat] (partner 1 µM)
Procedure, shortened: as §1

[3] = compound: CS(=O)(=O)CCNCc1ccc(-c2ccc3ncnc(Nc4ccc(OCc5cccc(F)c5)c(Cl)c4)c3c2)o1 [Lapatinib] + CCNC(=O)c1noc(-c2cc(C(C)C)c(O)cc2O)c1-c1ccc(CN2CCOCC2)cc1 [Luminespib] (partner 0.01 µM)
Procedure, shortened: as §1

[4] = compound: CS(=O)(=O)CCNCc1ccc(-c2ccc3ncnc(Nc4ccc(OCc5cccc(F)c5)c(Cl)c4)c3c2)o1 [Lapatinib] + N=C(N)NC(=N)NCCc1ccccc1 [Phenformin] (partner 250 µM)
Procedure, shortened: as §1

Cell Line | relative viability ([1]; first compound 0.001 µM) | relative viability ([1]; first compound 0.01 µM) | relative viability ([1]; first compound 0.03162 µM) | relative viability ([1]; first compound 0.1 µM) | relative viability ([2]; first compound 0.06325 µM) | relative viability ([2]; first compound 0.6325 µM) | relative viability ([2]; first compound 2 µM) | relative viability ([3]; first compound 0.02 µM) | relative viability ([3]; first compound 0.06325 µM) | relative viability ([3]; first compound 0.2 µM) | relative viability ([3]; first compound 0.6325 µM) | relative viability ([3]; first compound 2 µM) | relative viability ([4]; first compound 0.02 µM) | relative viability ([4]; first compound 0.06325 µM) | relative viability ([4]; first compound 0.2 µM) | relative viability ([4]; first compound 0.6325 µM) | relative viability ([4]; first compound 2 µM) | relative viability ([2]; first compound 0.02 µM) | relative viability ([2]; first compound 0.2 µM)
PC-3 [JPC-3] | 0.782 | 0.817 | 0.913 | 0.696 | 0.804 | 0.637 | 0.495 | 0.74 | 0.665 | 0.648 | 0.722 | 0.477 | 0.452 | 0.468 | 0.457 | 0.521 | 0.431 |  | 
NCI-H1993 | 0.862 |  | 0.948 | 0.365 |  | 0.672 | 0.509 | 0.824 |  | 0.737 | 0.749 | 0.476 | 0.597 |  | 0.509 | 0.583 | 0.556 | 0.45 | 0.721
NCI-H1734 | 0.233 | 0.241 | 0.196 | 0.138 | 0.708 | 0.88 | 0.792 | 0.22 | 0.196 | 0.189 | 0.186 | 0.174 | 0.407 | 0.288 | 0.374 | 0.451 | 0.414 |  | 0.816
ChaGo-K-1 | 0.672 | 0.71 | 0.765 | 0.543 | 0.731 | 0.78 | 0.545 | 0.636 | 0.448 | 0.603 | 0.563 | 0.57 | 0.379 | 0.386 | 0.465 | 0.454 | 0.414 | 0.53 | 0.747
LU99A | 0.249 | 0.269 | 0.249 | 0.263 | 0.358 | 0.426 | 0.469 | 0.253 | 0.248 | 0.285 | 0.251 | 0.244 | 0.379 | 0.712 | 0.743 | 0.866 | 0.792 | 0.49 | 0.506
ABC-1 | 1.18 | 0.807 | 0.736 | 0.598 | 1.02 | 1 | 1.18 |  |  | 0.509 |  | 0.64 | 0.25 | 0.25 | 0.223 | 0.215 | 0.21 | 0.929 | 
HCC-44 | 1.18 | 1.2 | 0.897 | 0.997 | 1.11 | 1.16 | 0.916 |  | 0.716 | 1.14 | 0.965 | 1.06 |  | 0.189 | 0.211 | 0.172 | 0.235 | 1.07 | 1.16
NCI-H1650 | 0.223 | 0.197 | 0.203 | 0.214 | 0.578 | 0.516 | 0.664 | 0.19 | 0.202 | 0.198 | 0.2 | 0.2 | 0.442 | 0.313 | 0.461 | 0.31 | 0.307 | 0.474 | 0.554
NCI-H596 | 1.14 | 1.08 | 1.06 | 1.06 | 0.538 | 0.711 | 0.537 |  | 0.879 | 1.04 | 0.944 | 0.756 |  | 0.654 | 0.748 | 0.762 | 0.685 |  | 0.606
